How the values were obtained:
Test in all cases: combination Emax (second highest fraction inhibited in the dose matrix, 72 h); higher = more inhibition; extreme values may be limits of the assay
[1] = test system: NCI-H1781 (Lung Adenocarcinoma)
Method in brief: (§1)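 Cell lines in DMEM/F12 or RPMI with 10% FBS were plated in 1536-well plates, held 24 hours at 37°C, 5% CO2, then given two-drug dose matrices for 72 hours (DMSO typically 0.2%). Viability was read by CellTiter-Glo 2.0 luminescence and scaled as inhibition from 0 (vehicle wells) to 1 (blank wells). Combination Emax is the second-highest inhibition in the matrix; Bliss excess is observed combination effect minus expected EA + EB − EA·EB, EA and EB being single-agent effects.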

[2] = test system: HCC2157 (Breast Carcinoma)
Method in brief: as §1

[3] = test system: CFPAC-1 (Pancreatic Carcinoma)
Method in brief: as §1

[4] = test system: LU-99A (Non-Small Cell Lung Carcinoma)
Method in brief: as §1

[5] = test system: DMS-273 (Small Cell Lung Carcinoma)
Method in brief: as §1

[6] = test system: SW1990 (Pancreatic Carcinoma)
Method in brief: as §1

[7] = test system: SW1088 (Low Grade Glioma)
Method in brief: as §1

[8] = test system: NCI-H1299 (Non-Small Cell Lung Carcinoma)
Method in brief: as §1

[9] = test system: OCI-AML2 (Acute Myeloid Leukemia)
Method in brief: as §1

[10] = test system: IHH-4 (Thyroid Gland Carcinoma)
Method in brief: as §1

[11] = test system: MFH-ino (Other Solid Carcinomas)
Method in brief: as §1

J82 (Bladder Carcinoma) = test system: J82 (Bladder Carcinoma)
Method in brief: as §1

SK-N-FI (Neuroblastoma) = test system: SK-N-FI (Neuroblastoma)
Method in brief: as §1

[12] = test system: 697 (B-Lymphoblastic Leukemia)
Method in brief: as §1

[13] = test system: TGBC24TKB (Biliary Tract Carcinoma)
Method in brief: as §1

SN12C (Kidney Carcinoma) = test system: SN12C (Kidney Carcinoma)
Method in brief: as §1

[14] = test system: C3A (Hepatocellular Carcinoma)
Method in brief: as §1

[15] = test system: COR-L23 (Non-Small Cell Lung Carcinoma)
Method in brief: as §1

[16] = test system: NALM-6 (B-Lymphoblastic Leukemia)
Method in brief: as §1

[17] = test system: MDA-MB-231 (Breast Carcinoma)
Method in brief: as §1

Structure (SMILES)	combination Emax [1]	combination Emax [2]	combination Emax [3]	combination Emax [4]	combination Emax [5]	combination Emax [6]	combination Emax [7]	combination Emax [8]	combination Emax [9]	combination Emax [10]	combination Emax [11]	combination Emax (J82 (Bladder Carcinoma))	combination Emax (SK-N-FI (Neuroblastoma))	combination Emax [12]	combination Emax [13]	combination Emax (SN12C (Kidney Carcinoma))	combination Emax [14]	combination Emax [15]	combination Emax [16]	combination Emax [17]
CC(=O)Nc1cccc(-n2c(=O)n(C3CC3)c(=O)c3c(Nc4ccc(I)cc4F)n(C)c(=O)c(C)c32)c1 [Trametinib] + Cc1nc(-c2cn3c(n2)-c2ccc(-c4cnn(C(C)(C)C(N)=O)c4)cc2OCC3)n(C(C)C)n1 [Taselisib] (first compound max 1 µM, 7x7, partner max 10 µM)	0.88	1	0.826	0.984	0.591	0.971	0.696	0.68	1	0.78	0.583	0.593	0.954	0.653	0.969	0.45	0.903	0.919	0.689	0.868
CC1(C)CCC(CN2CCN(c3ccc(C(=O)NS(=O)(=O)c4ccc(NCC5CCOCC5)c([N+](=O)[O-])c4)c(Oc4cnc5[nH]ccc5c4)c3)CC2)=C(c2ccc(Cl)cc2)C1 [Venetoclax] + COc1cc(Nc2ncc3c(n2)-c2ccc(Cl)cc2C(c2c(F)cccc2OC)=NC3)ccc1C(=O)O [Alisertib] (first compound max 1 µM, 7x7, partner max 10 µM)	0.665	0.877	0.402	0.44	0.767	0.415	0.679	0.385	1	0.411	0.318	0.351	0.666	1	0.638	0.318	0.302	0.307	0.977	0.392
CS(=O)(=O)CCNCc1ccc(-c2ccc3ncnc(Nc4ccc(OCc5cccc(F)c5)c(Cl)c4)c3c2)o1 [Lapatinib] + C[C@@H](Oc1cc(-c2cnn(C3CCNCC3)c2)cnc1N)c1c(Cl)ccc(F)c1Cl [Crizotinib] (first compound max 10 µM, 7x7, partner max 10 µM)	0.774	1	0.963	0.603	0.954	0.331	0.654	0.492	0.915	0.907	0.25	0.662	0.601	0.996	0.952	0.216	0.951	0.949	0.959	0.828
Cc1cc2ncnn2cc1Nc1ncc2c(n1)n(C1CCOCC1)c(=O)n2C [AZD7648] + CN(C)CCCOc1ccc(-c2ccc3ncc4c(c3c2)n(C2CCOCC2)c(=O)n4C)cn1 [AZD0156] (first compound max 10 µM, 7x7, partner max 1 µM)	0.352	0.478	0.235	0.511	0.411	0.212	0.419	0.352	0.367	0.329	0.341	0.104	0.353	0.486	0.357	0.262	0.251	0.0702	0.323	0.42
CC1(C)CCC(CN2CCN(c3ccc(C(=O)NS(=O)(=O)c4ccc(NCC5CCOCC5)c([N+](=O)[O-])c4)c(Oc4cnc5[nH]ccc5c4)c3)CC2)=C(c2ccc(Cl)cc2)C1 [Venetoclax] + C[C@@H]1COCCN1C2=NC(=NC(=C2)C3(CC3)[S@](=N)(=O)C)C4=C5C=CNC5=NC=C4 [AZD6738] (first compound max 1 µM, 7x7, partner max 10 µM)	0.451	0.877	0.554	0.619	0.809	0.666	0.684	0.534	1	0.691	0.5	0.483	0.766	1	0.705	0.287	0.452	0.585	0.994	0.624
CN(CCO)CC[C@H](CSc1ccccc1)Nc1ccc(S(=O)(=O)NC(=O)c2ccc(N3CCC([C@@H](O)c4ccccc4-c4ccc(Cl)cc4)CC3)cc2)cc1S(=O)(=O)C(F)(F)F [AZD4320] + C[C@@H](Nc1cc(F)cc(F)c1)c1cc(C(=O)N(C)C)cc2c(=O)cc(N3CCOCC3)oc12 [AZD8186] (first compound max 1 µM, 7x7, partner max 3 µM)	0.623	0.978	0.424	0.765	0.649	0.388	0.515	0.297	1	0.516	0.397	0.282	0.395	1	0.544	0.331	0.632	0.332	0.997	0.808

— the supplement of paper PMC11061612
